From PubChem BioAssay (NCI)
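Protocol summary: plate cells (96-well), add compound at 5 concentrations, incubate 48 h, interpolate endpoints linearly. TGI: concentration producing complete growth inhibition.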

Tests used:
Assay in all cases: DTP human tumour cell line panel, 48 h
HL-60(TB) leukemia = tested on: HL-60(TB) leukemia
MDA-MB-231 breast = tested on: MDA-MB-231 breast
NCI/ADR-RES ovarian = tested on: NCI/ADR-RES ovarian
T-47D breast = tested on: T-47D breast
RPMI-8226 leukemia = tested on: RPMI-8226 leukemia
MOLT-4 leukemia = tested on: MOLT-4 leukemia
NCI-H522 lung = tested on: NCI-H522 lung
HOP-92 NSCLC = tested on: HOP-92 NSCLC
SK-MEL-5 melanoma = tested on: SK-MEL-5 melanoma
UO-31 renal = tested on: UO-31 renal
LOX IMVI melanoma = tested on: LOX IMVI melanoma
MALME-3M melanoma = tested on: MALME-3M melanoma
DU-145 prostate = tested on: DU-145 prostate
HCT-116 colon = tested on: HCT-116 colon
BT-549 breast = tested on: BT-549 breast
UACC-62 melanoma = tested on: UACC-62 melanoma
HOP-62 NSCLC = tested on: HOP-62 NSCLC
EKVX NSCLC = tested on: EKVX NSCLC
M14 melanoma = tested on: M14 melanoma
SW-620 colon = tested on: SW-620 colon
SF-539 CNS = tested on: SF-539 CNS
SNB-19 CNS = tested on: SNB-19 CNS
OVCAR-5 ovarian = tested on: OVCAR-5 ovarian
IGROV1 ovarian = tested on: IGROV1 ovarian
CCRF-CEM leukemia = tested on: CCRF-CEM leukemia
U251 CNS = tested on: U251 CNS
HS 578T breast = tested on: HS 578T breast
OVCAR-8 ovarian = tested on: OVCAR-8 ovarian
SF-295 CNS = tested on: SF-295 CNS
HCC-2998 colon = tested on: HCC-2998 colon
CAKI-1 renal = tested on: CAKI-1 renal
OVCAR-3 ovarian = tested on: OVCAR-3 ovarian
COLO 205 colon = tested on: COLO 205 colon
SNB-75 CNS = tested on: SNB-75 CNS
OVCAR-4 ovarian = tested on: OVCAR-4 ovarian
HCT-15 colon = tested on: HCT-15 colon
MDA-MB-435 = tested on: MDA-MB-435
MDA-N = tested on: MDA-N
NCI-H23 lung = tested on: NCI-H23 lung
SN12C renal = tested on: SN12C renal
ACHN renal = tested on: ACHN renal
K-562 leukemia = tested on: K-562 leukemia
NCI-H226 lung = tested on: NCI-H226 lung
HT29 colon = tested on: HT29 colon
RXF 393 renal = tested on: RXF 393 renal
UACC-257 melanoma = tested on: UACC-257 melanoma
SK-MEL-28 melanoma = tested on: SK-MEL-28 melanoma
PC-3 prostate = tested on: PC-3 prostate
TK-10 renal = tested on: TK-10 renal
SF-268 CNS = tested on: SF-268 CNS
A549 NSCLC = tested on: A549 NSCLC
MCF7 breast = tested on: MCF7 breast
NCI-H460 lung = tested on: NCI-H460 lung
SK-OV-3 ovarian = tested on: SK-OV-3 ovarian
786-0 renal = tested on: 786-0 renal
KM12 colon = tested on: KM12 colon
SK-MEL-2 melanoma = tested on: SK-MEL-2 melanoma
SR leukemia = tested on: SR leukemia
A498 renal = tested on: A498 renal

Q: `Cc1cc(=O)n2nc(CSc3nnc(N)s3)sc2n1` was tested. Which TGI (HL-60(TB) leukemia) did it give?
A: > 100 µM

Q: What about the TGI (MDA-MB-231 breast) of the same compound?
A: > 100 µM

Q: What about the TGI (NCI/ADR-RES ovarian) of the same compound?
A: > 100 µM

Q: And the TGI (T-47D breast)?
A: > 100 µM

Q: What about the TGI (RPMI-8226 leukemia) of the same compound?
A: > 100 µM

Q: And the TGI (MOLT-4 leukemia)?
A: > 100 µM

Q: And the TGI (NCI-H522 lung)?
A: > 100 µM

Q: What about the TGI (HOP-92 NSCLC) of the same compound?
A: > 100 µM

Q: What about the TGI (SK-MEL-5 melanoma) of the same compound?
A: > 100 µM

Q: What about the TGI (UO-31 renal) of the same compound?
A: > 100 µM

Q: And the TGI (LOX IMVI melanoma)?
A: > 100 µM

Q: What about the TGI (MALME-3M melanoma) of the same compound?
A: > 100 µM

Q: And the TGI (DU-145 prostate)?
A: > 100 µM

Q: And the TGI (HCT-116 colon)?
A: > 100 µM

Q: What about the TGI (BT-549 breast) of the same compound?
A: > 100 µM

Q: And the TGI (UACC-62 melanoma)?
A: > 100 µM

Q: What about the TGI (HOP-62 NSCLC) of the same compound?
A: > 100 µM

Q: And the TGI (EKVX NSCLC)?
A: > 100 µM

Q: And the TGI (M14 melanoma)?
A: > 100 µM

Q: What about the TGI (SW-620 colon) of the same compound?
A: > 100 µM

Q: And the TGI (SF-539 CNS)?
A: > 100 µM

Q: What about the TGI (SNB-19 CNS) of the same compound?
A: > 100 µM

Q: And the TGI (OVCAR-5 ovarian)?
A: > 100 µM

Q: What about the TGI (IGROV1 ovarian) of the same compound?
A: > 100 µM

Q: What about the TGI (CCRF-CEM leukemia) of the same compound?
A: > 100 µM

Q: And the TGI (U251 CNS)?
A: > 100 µM

Q: And the TGI (HS 578T breast)?
A: > 100 µM

Q: What about the TGI (OVCAR-8 ovarian) of the same compound?
A: > 100 µM

Q: What about the TGI (SF-295 CNS) of the same compound?
A: > 100 µM

Q: And the TGI (HCC-2998 colon)?
A: > 100 µM

Q: What about the TGI (CAKI-1 renal) of the same compound?
A: > 100 µM

Q: What about the TGI (OVCAR-3 ovarian) of the same compound?
A: > 100 µM

Q: And the TGI (COLO 205 colon)?
A: > 100 µM

Q: And the TGI (SNB-75 CNS)?
A: > 100 µM

Q: What about the TGI (OVCAR-4 ovarian) of the same compound?
A: > 100 µM

Q: And the TGI (HCT-15 colon)?
A: > 100 µM

Q: And the TGI (MDA-MB-435)?
A: > 100 µM

Q: What about the TGI (MDA-N) of the same compound?
A: > 100 µM

Q: And the TGI (NCI-H23 lung)?
A: > 100 µM

Q: And the TGI (SN12C renal)?
A: > 100 µM

Q: And the TGI (ACHN renal)?
A: > 100 µM

Q: And the TGI (K-562 leukemia)?
A: > 100 µM

Q: And the TGI (NCI-H226 lung)?
A: > 100 µM

Q: What about the TGI (HT29 colon) of the same compound?
A: > 100 µM

Q: And the TGI (RXF 393 renal)?
A: > 100 µM

Q: And the TGI (UACC-257 melanoma)?
A: > 100 µM

Q: What about the TGI (SK-MEL-28 melanoma) of the same compound?
A: > 100 µM

Q: And the TGI (PC-3 prostate)?
A: > 100 µM

Q: And the TGI (TK-10 renal)?
A: > 100 µM

Q: And the TGI (SF-268 CNS)?
A: > 100 µM

Q: What about the TGI (A549 NSCLC) of the same compound?
A: > 100 µM

Q: What about the TGI (MCF7 breast) of the same compound?
A: > 100 µM

Q: And the TGI (NCI-H460 lung)?
A: > 100 µM

Q: What about the TGI (SK-OV-3 ovarian) of the same compound?
A: > 100 µM

Q: What about the TGI (786-0 renal) of the same compound?
A: > 100 µM

Q: And the TGI (KM12 colon)?
A: > 100 µM

Q: And the TGI (SK-MEL-2 melanoma)?
A: > 100 µM

Q: For `NC(c1ccccc1)(C(F)(F)F)P1(=O)OC(=O)c2ccccc2O1` (stereo not given), which TGI (MDA-MB-231 breast) is on record?
A: > 100 µM

Q: What about the TGI (NCI/ADR-RES ovarian) of the same compound?
A: > 100 µM

Q: What about the TGI (T-47D breast) of the same compound?
A: > 100 µM

Q: What about the TGI (RPMI-8226 leukemia) of the same compound?
A: > 100 µM

Q: And the TGI (MOLT-4 leukemia)?
A: > 100 µM

Q: What about the TGI (HOP-92 NSCLC) of the same compound?
A: 85 µM

Q: And the TGI (SK-MEL-5 melanoma)?
A: > 100 µM

Q: And the TGI (UO-31 renal)?
A: > 100 µM

Q: And the TGI (DU-145 prostate)?
A: > 100 µM

Q: What about the TGI (HCT-116 colon) of the same compound?
A: > 100 µM

Q: What about the TGI (BT-549 breast) of the same compound?
A: > 100 µM

Q: And the TGI (UACC-62 melanoma)?
A: > 100 µM

Q: What about the TGI (HOP-62 NSCLC) of the same compound?
A: > 100 µM

Q: What about the TGI (EKVX NSCLC) of the same compound?
A: > 100 µM

Q: What about the TGI (M14 melanoma) of the same compound?
A: > 100 µM

Q: What about the TGI (SR leukemia) of the same compound?
A: > 100 µM

Q: And the TGI (SW-620 colon)?
A: > 100 µM

Q: What about the TGI (SF-539 CNS) of the same compound?
A: > 100 µM

Q: And the TGI (SNB-19 CNS)?
A: > 100 µM

Q: What about the TGI (OVCAR-5 ovarian) of the same compound?
A: > 100 µM

Q: What about the TGI (IGROV1 ovarian) of the same compound?
A: > 100 µM

Q: And the TGI (U251 CNS)?
A: > 100 µM

Q: And the TGI (OVCAR-8 ovarian)?
A: > 100 µM

Q: And the TGI (SF-295 CNS)?
A: > 100 µM

Q: And the TGI (HCC-2998 colon)?
A: > 100 µM

Q: And the TGI (CAKI-1 renal)?
A: > 100 µM

Q: What about the TGI (OVCAR-3 ovarian) of the same compound?
A: > 100 µM

Q: What about the TGI (COLO 205 colon) of the same compound?
A: > 100 µM

Q: What about the TGI (SNB-75 CNS) of the same compound?
A: > 100 µM

Q: And the TGI (OVCAR-4 ovarian)?
A: > 100 µM

Q: What about the TGI (HCT-15 colon) of the same compound?
A: > 100 µM

Q: What about the TGI (MDA-MB-435) of the same compound?
A: > 100 µM

Q: And the TGI (MDA-N)?
A: > 100 µM

Q: What about the TGI (NCI-H23 lung) of the same compound?
A: > 100 µM

Q: What about the TGI (SN12C renal) of the same compound?
A: > 100 µM

Q: What about the TGI (ACHN renal) of the same compound?
A: > 100 µM

Q: What about the TGI (K-562 leukemia) of the same compound?
A: > 100 µM

Q: And the TGI (NCI-H226 lung)?
A: > 100 µM

Q: And the TGI (HT29 colon)?
A: > 100 µM

Q: What about the TGI (RXF 393 renal) of the same compound?
A: > 100 µM

Q: What about the TGI (UACC-257 melanoma) of the same compound?
A: > 100 µM

Q: What about the TGI (SK-MEL-28 melanoma) of the same compound?
A: > 100 µM

Q: And the TGI (PC-3 prostate)?
A: > 100 µM

Q: What about the TGI (TK-10 renal) of the same compound?
A: > 100 µM

Q: And the TGI (SF-268 CNS)?
A: > 100 µM

Q: What about the TGI (A549 NSCLC) of the same compound?
A: > 100 µM

Q: What about the TGI (MCF7 breast) of the same compound?
A: > 100 µM

Q: And the TGI (NCI-H460 lung)?
A: > 100 µM

Q: And the TGI (SK-OV-3 ovarian)?
A: 74.4 µM

Q: And the TGI (786-0 renal)?
A: > 100 µM

Q: What about the TGI (A498 renal) of the same compound?
A: > 100 µM

Q: What about the TGI (KM12 colon) of the same compound?
A: > 100 µM

Q: What about the TGI (SK-MEL-2 melanoma) of the same compound?
A: > 100 µM
